Data published in PubChem BioAssay AID1963827 (Molecular Pharmacology Branch, DTP, NCI, 2024).

System: 994946-033-R-J1-PDC complex spheroid viability
Experiment: Anticancer human tumor 994946-033-R-J1-PDC patient-derived melanoma cell line growth inhibition [POLQ]
Details: for IC50: curve of first compound; for viability, T/C: stronger effect = lower value
Experimental: Multicellular complex tumor spheroid response to Polymerase (POL) inhibitors (novobiocin, ART-558, RP6685) in combination with a variety of drugs and investigational agents in selected tumor cell lines
The POL inhibitors (novobiocin, ART-558, and RP6685) were evaluated both individually and in combination with standard of care and investigational anticancer small molecules within a complex spheroid model of solid tumors. . Complex spheroids include a stromal component modeled by human endothelial cells (HUVEC) and fibroblasts modeled by human mesenchymal stem cells (MSCs). The concentration ranges selected for each drug and investigational agent were based upon clinically achievable concentrations if the clinical Cmax of the agent was known.
Compounds. The drugs and investigational agents: novobiocin (NSC847541), ART-558 (NSC835418), RP-6685 (NSC848927), peposertib (NSC802822), ceralasertib (NSC780249), elimusertib (NSC800525), camonsertib (NSC841442), AZD-1390 (NSC803789), olaparib (NSC753686), talazoparib (NSC767125), rucaparib (NSC756644), sotorasib (NSC818433), MRTX-1133 (NSC836407), SN-38 (NSC673596), topotecan (NSC609699), epotoside (NSC141540), doxorubicin (NSC123127), gemcitabine (NSC613327), 5-fluorouracil (NSC19893), paclitaxel (NSC125973), vemurafenib (NSC761431), MSA-2 (NSC828583), SN-011 (NSC837082), adavosertib (NSC754352), prexasertib (NSC758257), carboplatin (NSC241240) and oxaliplatin (NSC266046), were obtained from the National Cancer Institute (NCI) Developmental Therapeutics Program Chemical Repository (21). The FDA-approved anticancer drug set is available from the Developmental Therapeutics Program at https://dtp.cancer.gov/organization/dscb/obtaining/. […] The stock solutions were prepared in dimethyl sulfoxide (DMSO, Sigma-Aldrich, St. Louis, MO, cat. D2650), except for the platinum compounds which were prepared in saline (Quality Biological, Gaithersburg, MD, cat. 114-055-101), at 800-fold the tested concentration and stored at -70 degrees C prior to their use. All drugs and investigational agents were tested over a range starting from a high concentration at or near the clinical Cmax and decreasing in half-log increments. If the clinical Cmax for an agent had not been determined, the highest concentration tested was 10 microM, except for SN-38, which was tested at a high concentration of 1 microM.
Cell Culture. All cells were maintained in an incubator at 37 degrees C and 5% CO2 with 95% humidity. The PDC lines were cultured according to standard operating procedures established by the NCI PDMR (https://pdmr.cancer.gov). Table 3 of the manuscript, lists the cell lines along with the number of the three cell types plated to form the mct-spheroids and media for tumor cell growth. After thawing, all PDC lines, except 997537-175-T-J1-PDC and 415267-285-R-J2-PDC, were cultured in Matrigel-coated flasks prepared with a working solution of 1X Ham's F-12 nutrient mix, without supplementation (Thermo Fisher Scientific, cat. 11765054), 100 U/mL penicillin-streptomycin (Thermo Fisher Scientific, cat. 15140122), and 2.5% Matrigel (Corning Inc., Corning, NY, cat. 354248) for the first three passages. The two PDC lines 997537-175-T-J1-PDC and 415267-285-R-J2-PDC were cultured on uncoated flasks. The 857933-349-R-J2-PDC line was cultured in 6C/Colon 1B media containing advanced DMEM/F-12 (Thermo Fisher Scientific, cat. 12634028), 10 mM HEPES (Thermo Fisher Scientific, cat. 15630080), 1X GlutaMAX supplement (Thermo Fisher Scientific, cat. 35050061), 0.1 mg/mL primocin (InvivoGen, San Diego, CA, cat. ant-pm-2), 10% defined fetal bovine serum, heat inactivated (HyClone Laboratories Inc., Logan, UT, cat. SH30070.03HI), 50% L-WRN conditioned media (ATCC, cat. CRL-3276), 1.25 mM N-Acetyl-L-cysteine (Sigma-Aldrich, cat. A9165), 10 mM nicotinamide (Sigma-Aldrich, cat. N0636), 1X B-27 supplement (Thermo Fisher Scientific, cat. 17504044), 1X N-2 supplement (Thermo Fisher Scientific, cat. […]

[1] = second compound 0.0316 µM, first compound 0.0316 µM
[2] = second compound 0.0316 µM, first compound 0.1 µM
[3] = second compound 0.0316 µM, first compound 0.316 µM
[4] = second compound 0.0316 µM, first compound 1 µM
[5] = second compound 0.0316 µM, first compound 3.16 µM
[6] = second compound 0.0316 µM, first compound 10 µM
[7] = second compound 0.1 µM, first compound 0.0316 µM
[8] = second compound 0.1 µM, first compound 0.1 µM
[9] = second compound 0.1 µM, first compound 0.316 µM
[10] = second compound 0.1 µM, first compound 1 µM
[11] = second compound 0.1 µM, first compound 3.16 µM
[12] = second compound 0.1 µM, first compound 10 µM
[13] = second compound 0.316 µM, first compound 0.0316 µM
[14] = second compound 0.316 µM, first compound 0.1 µM
[15] = second compound 0.316 µM, first compound 0.316 µM
[16] = second compound 0.316 µM, first compound 1 µM
[17] = second compound 0.316 µM, first compound 3.16 µM
[18] = second compound 0.316 µM, first compound 10 µM
[19] = second compound 1 µM, first compound 0.0316 µM
[20] = second compound 1 µM, first compound 0.1 µM
[21] = second compound 1 µM, first compound 0.316 µM
[22] = second compound 1 µM, first compound 1 µM
[23] = second compound 1 µM, first compound 3.16 µM
[24] = second compound 1 µM, first compound 10 µM
[25] = second compound 3.16 µM, first compound 0.0316 µM
[26] = second compound 3.16 µM, first compound 0.1 µM
[27] = second compound 3.16 µM, first compound 0.316 µM
[28] = second compound 3.16 µM, first compound 1 µM
[29] = second compound 3.16 µM, first compound 3.16 µM
[30] = second compound 3.16 µM, first compound 10 µM
[31] = second compound 10 µM, first compound 0.0316 µM
[32] = second compound 10 µM, first compound 0.1 µM
[33] = second compound 10 µM, first compound 0.316 µM
[34] = second compound 10 µM, first compound 1 µM
[35] = second compound 10 µM, first compound 3.16 µM
[36] = second compound 10 µM, first compound 10 µM
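Also: spheroids exposed to drugs for 7 days.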
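For viability, T/C in this document: 100% = DMSO vehicle treated spheroids.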

CCc1cc2c(N3CCc4c(cc(Cn5ccnc5)cc4-c4cn(C)nc4C(F)(F)F)C3=O)cc(C)nc2c(OC)n1 + Cc1cccc(N(C)C(=O)C2C(O)CCN2c2nc(C)cc(C(F)(F)F)c2C#N)c1
IC50 (second compound 0.0316 µM): > 10 µM | IC50 (second compound 0.1 µM): > 10 µM | IC50 (second compound 0.316 µM): > 10 µM | IC50 (second compound 1 µM): 6.22 µM | IC50 (second compound 3.16 µM): > 10 µM | IC50 (second compound 10 µM): > 10 µM | viability, T/C [1]: 74.7% | viability, T/C [2]: 61.9% | viability, T/C [3]: 94.6% | viability, T/C [4]: 79.2% | viability, T/C [5]: 68.4% | viability, T/C [6]: 69.9% | viability, T/C [7]: 73% | viability, T/C [8]: 84.7% | viability, T/C [9]: 90.7% | viability, T/C [10]: 88.8% | viability, T/C [11]: 90.5% | viability, T/C [12]: 77.6% | viability, T/C [13]: 63% | viability, T/C [14]: 78.5% | viability, T/C [15]: 60.2% | viability, T/C [16]: 66.5% | viability, T/C [17]: 61.3% | viability, T/C [18]: 53.1% | viability, T/C [19]: 106% | viability, T/C [20]: 76.1% | viability, T/C [21]: 78.8% | viability, T/C [22]: 81.4% | viability, T/C [23]: 69.6% | viability, T/C [24]: 38% | viability, T/C [25]: 76.5% | viability, T/C [26]: 83.3% | viability, T/C [27]: 60.4% | viability, T/C [28]: 74.3% | viability, T/C [29]: 66.8% | viability, T/C [30]: 67.6% | viability, T/C [31]: 76% | viability, T/C [32]: 73.2% | viability, T/C [33]: 68.1% | viability, T/C [34]: 89.2% | viability, T/C [35]: 73.8% | viability, T/C [36]: 64.1%

CCc1cc2c(N3CCc4c(cc(Cn5ccnc5)cc4-c4cn(C)nc4C(F)(F)F)C3=O)ccnc2c(OC)n1 + Cc1cccc(N(C)C(=O)C2C(O)CCN2c2nc(C)cc(C(F)(F)F)c2C#N)c1
IC50 (second compound 0.0316 µM): > 10 µM | IC50 (second compound 0.1 µM): > 10 µM | IC50 (second compound 0.316 µM): > 10 µM | IC50 (second compound 1 µM): > 10 µM | IC50 (second compound 3.16 µM): > 10 µM | IC50 (second compound 10 µM): > 10 µM | viability, T/C [1]: 107% | viability, T/C [2]: 86.7% | viability, T/C [3]: 68.3% | viability, T/C [4]: 78.4% | viability, T/C [5]: 69.1% | viability, T/C [6]: 67.4% | viability, T/C [7]: 95.3% | viability, T/C [8]: 85.2% | viability, T/C [9]: 78.6% | viability, T/C [10]: 78.1% | viability, T/C [11]: 66.3% | viability, T/C [12]: 66.9% | viability, T/C [13]: 102% | viability, T/C [14]: 94.2% | viability, T/C [15]: 86.1% | viability, T/C [16]: 93.9% | viability, T/C [17]: 63.3% | viability, T/C [18]: 61.6% | viability, T/C [19]: 77.7% | viability, T/C [20]: 78.8% | viability, T/C [21]: 93.5% | viability, T/C [22]: 80.1% | viability, T/C [23]: 84.1% | viability, T/C [24]: 55.2% | viability, T/C [25]: 92.4% | viability, T/C [26]: 76.8% | viability, T/C [27]: 65% | viability, T/C [28]: 63% | viability, T/C [29]: 85.9% | viability, T/C [30]: 53.1% | viability, T/C [31]: 81.5% | viability, T/C [32]: 65.4% | viability, T/C [33]: 73.6% | viability, T/C [34]: 57.8% | viability, T/C [35]: 71.7% | viability, T/C [36]: 65.9%

COc1cc(C2c3cc4c(cc3C(OC3OC5COC(C)OC5C(O)C3O)C3COC(=O)C23)OCO4)cc(OC)c1O (stereo unspecified) + Nc1ccc(C#CCN(C(=O)Cc2ncc(C(F)(F)F)cc2C(F)(F)F)c2ccc(F)cc2)nn1
IC50 (second compound 0.0316 µM): 0.725 µM | IC50 (second compound 0.1 µM): 0.348 µM | IC50 (second compound 0.316 µM): 0.363 µM | IC50 (second compound 1 µM): 0.395 µM | IC50 (second compound 3.16 µM): 0.369 µM | IC50 (second compound 10 µM): 0.879 µM | viability, T/C [1]: 70.3% | viability, T/C [2]: 67.4% | viability, T/C [3]: 68.8% | viability, T/C [4]: 42% | viability, T/C [5]: 19.9% | viability, T/C [6]: 8.78% | viability, T/C [7]: 86.1% | viability, T/C [8]: 73.3% | viability, T/C [9]: 42.3% | viability, T/C [10]: 43% | viability, T/C [11]: 16.5% | viability, T/C [12]: 6.05% | viability, T/C [13]: 87.1% | viability, T/C [14]: 69.9% | viability, T/C [15]: 54% | viability, T/C [16]: 32.4% | viability, T/C [17]: 20.6% | viability, T/C [18]: 9.78% | viability, T/C [19]: 111% | viability, T/C [20]: 77% | viability, T/C [21]: 55.1% | viability, T/C [22]: 35.4% | viability, T/C [23]: 17.9% | viability, T/C [24]: 10.3% | viability, T/C [25]: 84.8% | viability, T/C [26]: 70.5% | viability, T/C [27]: 48% | viability, T/C [28]: 41.3% | viability, T/C [29]: 15.3% | viability, T/C [30]: 5.78% | viability, T/C [31]: 77.2% | viability, T/C [32]: 70.4% | viability, T/C [33]: 58.7% | viability, T/C [34]: 53.3% | viability, T/C [35]: 14.5% | viability, T/C [36]: 7.34%
